≈ marks a conversion by molar mass, not a printed value. Read-outs that look alike come from different tables or passages of the source. Where a SMILES comes first, the peptide text is derived from it.
Columns and labels:
[1] = test system: P. aeruginosa 4007; format: cell-based, Pseudomonas aeruginosa
[2] = Calcein release from LUVs; details: P/L ratio of 0.05
Description: To examine the mechanism of action of PEP27 and PEP27-2, we evaluated the changes in bacterial cell membrane permeability by monitoring the release of calcein, a fluorescent marker, from calcein entrapped LUVs with different lipid bilayer compositions.
Peptide-induced membrane permeabilization was quantified by monitoring calcein release from LUVs (n=3 per condition). Different calcein-entrapped LUVs [PE/PG (7/3) or PC/CH/SM (1/1/1)] were prepared as described above, except that the dry lipid films were resuspended in 1 mL of PBS (pH 7.2) containing 70 mM calcein. Gel filtration chromatography on a Sephadex G-50 column was performed to separate free calcein from that entrapped in LUVs. Thereafter, the LUVs with entrapped calcein were mixed with peptides at various ratios, and the fluorescence of the released calcein was measured with a SpectraMax M3 Multi-Mode Microplate Reader (Molecular Devices, Sunnyvale, CA, USA) at excitation and emission wavelengths of 480 and 520 nm, respectively.

[3] = test system: E. coli ATCC27325; format: cell-based, Escherichia coli
Description: (§1) In order to evaluate the antimicrobial activity of the peptides prepared by the method of above 1, a minimal inhibitory concentration (MIC) value as the minimum concentration of a peptide, in which cells are not divided, was measured.
(§2) Specifically, the strains shown in Table 3 below were purchased, cultured in a medium having a constitutional composition suitable for each strain to a mid-log phase, and then diluted to a concentration of 2×10^4 cells/100 μl to prepare the product on a micro-titration plate (Nunc, USA). Then, PEP27, PEP27-1, PEP27-2 or PEP27-5 peptide synthesized in the above 1 was added to each well by serial dilution ½ times, followed by incubation at 37° C. for 18 hours.

[4] = test system: E. coli CCARM1238; format: cell-based, Escherichia coli; details: E. coli CCARM1238, antibiotics-tolerant; 37° C., 18 hours
Description: as §1, §2

[5] = test system: B. subtilis KCTC1998; format: cell-based, Bacillus subtilis
Description: as §1, §2

[6] = test system: S. aureus CCARM3518; test: microbe, parasite or virus in culture; details: S. aureus CCARM3518, antibiotics-tolerant; 37° C., 18 hours
How it was run: (§3)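 Peptide growth inhibition measured by twofold dilution against mid-log bacteria (2×10^4 cells/100 μl), 37° C, 18 hours; endpoint was absence of cell division. Meropenem, ceftazidime, ceftriaxone and vancomycin were run in parallel.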

[7] = test system: S. aureus CCARM3090; test: microbe, parasite or virus in culture; details: S. aureus CCARM3090, antibiotics-tolerant; 37° C., 18 hours
How it was run: as §3

[8] = test system: P. aeruginosa 4007; test: microbe, parasite or virus in culture
How it was run: as §3

[9] = test system: S. aureus CCARM3089; test: microbe, parasite or virus in culture; details: S. aureus CCARM3089, antibiotics-tolerant; 37° C., 18 hours
How it was run: as §3

[10] = test system: P. aeruginosa 4891; test: microbe, parasite or virus in culture
How it was run: as §3

[11] = test system: P. aeruginosa ATCC15692; test: microbe, parasite or virus in culture
How it was run: as §3

[12] = test system: P. aeruginosa ATCC15692; format: cell-based, Pseudomonas aeruginosa
[13] = test system: P. aeruginosa ATCC27853; format: cell-based, Pseudomonas aeruginosa
Source text: (§4) Biofilms may form on a wide variety of surfaces, including living or dead surfaces, and biofilm-associated bacteria are more tolerant to antibiotics than planktonic bacterial cells, making them antibiotic-resistant. To assess the efficacy of PEP27-2 against biofilms, we observed the anti-biofilm activity of PEP27-2 in S. aureus (ATCC 25923 and CCARM 3090), E. coli (ATCC 25922 and CCARM 1238), and P. aeruginosa (ATCC 27853 and 4891).
(§5) Specifically, among the strains listed in Table 3 above, Staphylococcus aureus, E. coli and Pseudomonas erujinosa, respectively, were cultured in each medium to a mid-log phase, diluted to a cell concentration of 5×10^4 cells/100 μl, and then, inoculated into a micro-plate (SPL). Then, PEP27-2 peptide was diluted 1/10 times with 10 mM PBS solution (pH 7.2) and 10 μl of the solution was added to each well, followed by incubation at 37° C. for 24 hours. After completely removing the supernatant, the solution was fixed with 100% methanol for 15 minutes, stained with a crystal violet dye solution for 1 hour, washed 3 times, and then dissolved in 95% ethanol, followed by measuring the absorbance at a wavelength of 595 nm using a micro titration plate reader, thereby determining a biofilm minimal inhibitory concentration value for each strain.

[14] = test system: P. aeruginosa 4891; format: cell-based, Pseudomonas aeruginosa
Source text: as §4, §5

[15] = test system: L. monocytogens KCTC3710; format: cell-based, Listeria monocytogenes
Description: as §1, §2

[16] = test system: E. coli ATCC 25922; test: Time-kill kinetics; format: cell-based, Escherichia coli; details: at MIC, after 20 min of treatment
Description: Time-killing kinetics were analyzed for E. coli ATCC 25922 and S. aureus ATCC 25923 in the presence of PEP27-2 at their respective MICs. The bacterial cells were cultured overnight until they reached the exponential growth phase; they were then incubated at 37° C. for an additional 10 min from 0 min to 1 h. The total bacterial population was then stained with QUANTOM total cell staining dye, after which the stained cells were mixed with QUANTOM cell loading buffer and loaded into QUANTOM M50 Slides. The slides were centrifuged using the QUANTOM centrifuge to evenly distribute them throughout the counting chamber and ensure accurate cell counts. Intracellular fluorescence was detected using the QUANTOM Tx microbial cell counter, which captures and counts cells automatically (Logos Biosystems, Gyeonggi-do, South Korea).

CC[C@H](C)[C@H](NC(=O)CN)C(=O)NCC(=O)N[C@@H](C)C(=O)N[C@H](C(=O)N[C@@H](CC(C)C)C(=O)N[C@@H](CCCCN)C(=O)N[C@H](C(=O)N[C@@H](CC(C)C)C(=O)N[C@H](C(=O)N[C@H](C(=O)NCC(=O)N[C@@H](CC(C)C)C(=O)N1CCC[C@H]1C(=O)N[C@@H](C)C(=O)N[C@@H](CC(C)C)C(=O)N[C@H](C(=O)N[C@@H](CO)C(=O)N[C@@H](Cc1c[nH]c2ccccc12)C(=O)N[C@H](C(=O)N[C@@H](CCCCN)C(=O)N[C@@H](CCCNC(=N)N)C(=O)N[C@@H](CCCCN)C(=O)N[C@@H](CCCNC(=N)N)C(=O)N[C@@H](CCC(N)=O)C(=O)N[C@@H](CCC(N)=O)C(N)=O)[C@@H](C)CC)[C@@H](C)CC)[C@@H](C)O)[C@@H](C)O)C(C)C)C(C)C [Melittin, reference compound]
Biofilm minimal inhibitory concentration ([1]; P. aeruginosa 4007, 37° C., 24 hours): 4 µM
maximum calcein leakage [2]: 100%
Minimal inhibitory concentration ([3]; E. coli ATCC27325, Gram-negative, 37° C., 18 hours): 2 µM (≈ 5.69 µg/mL)
Minimal inhibitory concentration [4]: 4 µM (≈ 11.4 µg/mL)
Minimal inhibitory concentration ([5]; B. subtilis KCTC1998, Gram-positive, 37° C., 18 hours): 4 µM (≈ 11.4 µg/mL)
Minimal inhibitory concentration [6]: 2 µM (≈ 5.69 µg/mL)
Minimal inhibitory concentration [7]: 4 µM (≈ 11.4 µg/mL)
Minimal inhibitory concentration ([8]; P. aeruginosa 4007, antibiotics-tolerant, 37° C., 18 hours): 2 µM (≈ 5.69 µg/mL)
Minimal inhibitory concentration [9]: 2 µM (≈ 5.69 µg/mL)
Minimal inhibitory concentration ([10]; P. aeruginosa 4891, antibiotics-tolerant, 37° C., 18 hours): 2 µM (≈ 5.69 µg/mL)
Minimal inhibitory concentration ([11]; P. aeruginosa ATCC15692, Gram-negative, 37° C., 18 hours): 2 µM (≈ 5.69 µg/mL)
Biofilm minimal inhibitory concentration ([12]; P. aeruginosa ATCC15692, 37° C., 24 hours): 4 µM
Biofilm minimal inhibitory concentration ([13]; P. aeruginosa ATCC27853, 37° C., 24 hours): 4 µM
Biofilm minimal inhibitory concentration ([14]; P. aeruginosa 4891, 37° C., 24 hours): 8 µM
Minimal inhibitory concentration ([15]; L. monocytogens KCTC3710, Gram-positive, 37° C., 18 hours): 4 µM (≈ 11.4 µg/mL)

CSCC[C@H](N)C(=O)N[C@@H](Cc1c[nH]c2ccccc12)C(=O)N[C@@H](CCCCN)C(=O)N[C@@H](Cc1c[nH]c2ccccc12)C(=O)N[C@@H](Cc1ccccc1)C(=O)N[C@@H](Cc1c[nH]cn1)C(=O)N[C@@H](CC(N)=O)C(=O)N[C@H](C(=O)N[C@@H](CC(C)C)C(=O)N[C@@H](CO)C(=O)N[C@@H](Cc1c[nH]c2ccccc12)C(=O)NCC(=O)N[C@@H](Cc1c[nH]c2ccccc12)C(=O)N[C@@H](CC(C)C)C(=O)N[C@@H](CC(C)C)C(=O)N[C@@H](C)C(=O)N[C@@H](CC(=O)O)C(=O)N[C@@H](CCCCN)C(=O)N[C@@H](CCCNC(=N)N)C(=O)N1CCC[C@H]1C(=O)N[C@@H](C)C(=O)N[C@@H](CCCNC(=N)N)C(=O)N[C@@H](CC(=O)O)C(=O)N[C@@H](Cc1ccc(O)cc1)C(=O)N[C@@H](CC(N)=O)C(=O)N[C@@H](CCCNC(=N)N)C(=O)N[C@@H](CCCCN)C(N)=O)C(C)C [PEP27-2] (H-MWKWFHNVLSWGWLLADKRPARDYNRK-NH2)
Biofilm minimal inhibitory concentration ([1]; 4007, 24 h): 8 µM
Minimal inhibitory concentration ([3]; ATCC27325, 18 h): 4 µM (≈ 13.9 µg/mL)
Minimal inhibitory concentration [4]: 4 µM (≈ 13.9 µg/mL)
decrease in E. coli cell viability [16]: 98.63%
Minimal inhibitory concentration ([5]; KCTC1998, 18 h): 4 µM (≈ 13.9 µg/mL)
Minimal inhibitory concentration [6]: 4 µM (≈ 13.9 µg/mL)
Minimal inhibitory concentration [7]: 4 µM (≈ 13.9 µg/mL)
Minimal inhibitory concentration ([8]; 4007, 18 h): 4 µM (≈ 13.9 µg/mL)
Minimal inhibitory concentration [9]: 4 µM (≈ 13.9 µg/mL)
Minimal inhibitory concentration ([10]; 4891, 18 h): 4 µM (≈ 13.9 µg/mL)
Minimal inhibitory concentration ([11]; ATCC15692, 18 h): 4 µM (≈ 13.9 µg/mL)
Biofilm minimal inhibitory concentration ([12]; ATCC15692, 24 h): 8 µM
maximum percent biofilm inhibition ([13]; ATCC27853): 81.2%
Biofilm minimal inhibitory concentration ([13]; ATCC27853, 24 h): 8 µM
Biofilm minimal inhibitory concentration ([14]; 4891, 24 h): 8 µM
Minimal inhibitory concentration ([15]; KCTC3710, 18 h): 8 µM (≈ 27.8 µg/mL)

From US12180252B2, “Peptide derived from PEP27 peptide and uses thereof” (priority 2021, dated 2024)
